# Assay results from US12102618B2, “Use of riluzole prodrugs to treat ataxias” (Biohaven Therapeutics Ltd., priority 2017, dated 2024).
# Tested on: ataxia symptoms in subjects with spinocerebellar ataxia (SCA)
# Assay: Phase IIb/III randomized, double-blind, placebo-controlled trial of BHV-4157 in SCA (BHV4157-201), 8-week randomization phase: SARA
# Format: in vivo, human
# Design: key to Total SARA change / Total SARA, Δ Btw Groups / Axial SARA [#1-4] change / Appendicular SARA [4-8] change / Total SARA change (LSmeans) / Gait [#1] change (LSmeans) / Axial Items [#1-4] change (LSmeans) / Appendicular [#5-8] change (LSmeans) / Change in Total SARA Score / Axial Items [1-4] change / Appendicular Items [5-8] change / ΔSARA (between groups): SARA points; total scale 0 (no ataxia) to 40 (severe)
# Conditions: for Total SARA, Δ Btw Groups / ΔSARA (between groups): BHV-4157 vs placebo; for Total SARA, week 8 StdChg / Total SARA, week 8 Δ Mean: all subjects
# Method: One measure for assessment of the methods of the present invention is by using the Scale for the Assessment and Rating of Ataxia (“SARA”).
# The SARA was developed as a clinician-administered instrument to measure severity of symptoms in patients with SCA. While there are multiple scales available, the SARA has been tested in many patients with SCA.
# The SARA scores range from 0 (no ataxia) to 40 (severe). The SARA takes approximately 15 minutes to administer. Assessed items include: • Gait (rated 0 to 8) • Stance (0 to 6) • Sitting (0 to 4) • Speech disturbance (0 to 6) • Finger chase (0 to 4) • Nose-finger test (0 to 4) • Fast alternating hand movements (0 to 4) • Heel-shin slide (0 to 4)
# Once each of the 8 categories has been assessed, the total score is calculated to determine the severity of ataxia. For motor activities of the four extremities (items 5-8), assessments are performed bilaterally and the mean values are used to obtain the total score.
# The purpose of this study is to compare the efficacy of BHV-4157 versus placebo on ataxia symptoms in subjects with spinocerebellar ataxia (SCA).
# Study Type: Interventional Study Design: Allocation: Randomized • Intervention Model: Parallel Assignment • Masking: Quadruple (Participant, Care Provider, Investigator, Outcomes Assessor) • Primary Purpose: Treatment • Official Title: A Phase IIb/III, Randomized, Double-blind, Placebo-controlled Trial of BHV-4157 in Adult Subjects With Spinocerebellar Ataxia Primary Outcome Measures: • To measure the change in total score on the Scale for Assessment and Rating of Ataxia (SARA) [Time Frame: The change in total score from baseline to week 8.] Secondary Outcome Measures: • To assess the safety and tolerability of BHV-4157 in subjects with SCA by measuring the frequency and severity of adverse events and discontinuations of adverse events. [Time Frame: Baseline to week 8.] Measured by the frequency and severity of adverse events and discontinuations of adverse events. • To compare efficacy of BHV-4157 with placebo on patient impression of benefit via use of the PGI-C [Time Frame: Baseline to Week 8] Change in PGI-C score
# The study is a Phase IIb/III, multicenter, randomized, double-blind, 2-arm placebo-controlled parallel-group study designed to assess safety, tolerability, and efficacy signals in a population of patients with Spinocerebellar Ataxia (SCA). Subjects will be randomized to receive placebo (QD) or BHV-4157 (140 mg QD), stratified by diagnosis (genotype) and baseline severity (Gait Item of the SARA of ≤4 and >4). Subjects with SCA3 genotype will be limited to comprise up to approximately 10% of the total population so that this most common type of SCA is not over-represented.
# Dosing will continue for 8 weeks. Subjects will return to the clinic two weeks after discontinuing study medication for a follow-up safety visit. In addition, subjects completing the Randomization Phase will be offered 48 weeks of open-label treatment as long as the PI believes open-label treatment offers an acceptable risk-benefit profile. Subjects who agree to enter the Extension Phase will not be required to wash-out of drug or complete the follow-up safety visit, but instead should continue dosing as specified in the extension phase. Subjects entering the Extension Phase would have their first Extension Visit four weeks after the Week 8 Randomization Phase visit. If there is a delay of two weeks or more in dosing between the Randomization Phase and the Extension Phase, subjects will be required to complete an Extension Baseline Visit. Thereafter, subjects will undergo visits every fourth week through Week 12 of this phase. Then subjects will undergo visits every 12 weeks up to Week 48 of this phase.
# [1] = Females Subjects in Experienced Site Group, n = 17
# [2] = Females Subjects in Stable Subgroup, n = 18
# [3] = NOT-STABLE subjects, n = 28, week 8
# [4] = STABLE subjects, n = 34, week 8
# [5] = experienced sites/raters population
# [6] = experienced sites/raters population, n = 37, week 8
structure (smiles),measurement,setting,value
"CN(CC(=O)Nc1nc2ccc(OC(F)(F)F)cc2s1)C(=O)CNC(=O)CN [BHV-4157, troriluzole]","Responder Analysis, ≥3 points in All Subjects (n = 67)",Females,32%
same,"Responders, ≥1 point",[1],71%
same,"Responders, ≥3 points",[1],41%
same,"Responders, ≥1 point",[2],67%
same,"Responders, ≥3 points",[2],39%
same,Change in Total SARA Score,"Females, All Subjects, n = 31, week 8",−1.08
same,Change in Total SARA Score,"Females, Experience of Sites, n = 20",−1.15
same,Change in Total SARA Score,"Females, STABLE Subgroup, n = 18",−1.33
same,"Responder Analysis, ≥3 points in Stable Subjects (n = 38)","Females, printed on line Experience of Sites",35%
same,"Responder Analysis, ≥3 points at Experienced sites (n = 33)","Females, printed on line STABLE Subgroup",39%
same,Appendicular SARA [4-8] change,[3],−0.15
same,Axial SARA [#1-4] change,[3],−0.46
same,Total SARA change,"STABLE subjects (screening-to-baseline SARA within 1 point), n = 34, 140 mg QD, baseline to week 8",−0.90
same,"Total SARA, Δ Btw Groups","STABLE subjects, week 8",−0.39
same,Appendicular SARA [4-8] change,[4],−0.36
same,Axial SARA [#1-4] change,[4],−0.27
same,"Responders, Response Definition ≥3 points (Total SARA)","Table 1, printed on line Total SARA STABLE, week 8",24%
same,"Responders, Response Definition ≥ 1 point (Total SARA)","Table 1, printed on line Total SARA UNSTABLE, week 8",59%
same,Total SARA change,"UNSTABLE / NOT-STABLE subjects, n = 28, 140 mg QD, week 8",−0.87
same,"Total SARA, Δ Btw Groups","UNSTABLE subjects, week 8",0.62
same,"Total SARA, week 8 StdChg","n = 63, May-18",0.459
same,"Total SARA, week 8 Δ Mean","n = 63, May-18 analysis, listed as BHV",−0.810
same,"Total SARA, week 8 Δ Mean","n = 63, May-18 analysis, listed as BHV5157",−0.81
same,"Total SARA, week 8 StdChg","n = 63, Sep-17 analysis",0.459
same,"Total SARA, week 8 Δ Mean","n = 63, Sep-17 analysis",−0.810
same,"Responders, Response Definition ≥1 point",[5],51.4%
same,"Responders, Response Definition ≥3 points",[5],21.6%
same,Appendicular [#5-8] change (LSmeans),[6],−0.52
same,Axial Items [#1-4] change (LSmeans),[6],−0.47
same,Gait [#1] change (LSmeans),[6],−0.14
same,Total SARA change (LSmeans),[6],−1.37
same,"Responder Analysis, ≥3 points in All Subjects (n = 65)",lighter median,33%
same,Change in Total SARA Score,"lighter median (≤76.4 kg), all lighter subjects, n = 27, week 8",−1.38
same,ΔSARA (between groups),"lighter median, EXP Sites",−1.03
same,Change in Total SARA Score,"lighter median, EXP Sites, n = 18",−1.64
same,ΔSARA (between groups),"lighter median, Stable Subgroup",−0.83
same,Change in Total SARA Score,"lighter median, Stable Subgroup, n = 19",−1.18
same,Appendicular Items [5-8] change,"lighter median, n = 27",−0.69
same,Axial Items [1-4] change,"lighter median, n = 27",−0.85
